Active and inactive are the calls of the source. No cut-off for these calls is given here.
Tests used:
[1] = Cytotoxicity against human K562 cells assessed as decrease in cell survival rate incubated for 72 hrs by MTS assay; assay type: toxicity, cell-based
[2] = Cytotoxicity against human K562/A02 cells overexpressing ABCB1 assessed as decrease in cell survival rate incubated for 72 hrs by MTS assay; assay type: toxicity, cell-based
K562 [3] = assay: Reversal of ABCB1 mediated adriamycin resistance in human K562 assessed as decrease in survival rate at 1.25 to 5 uM preincubated for 1 hrs followed by adriamycin addition and measured after 72 hrs by MTS assay; assay type: functional, cell-based; conditions: dose 1.25-5 µM, time 73.0 hrs
K562/A02 [4] = assay: Reversal of ABCB1 mediated adriamycin resistance in human K562/A02 overexpressing ABCB1 assessed as decrease in survival rate at 1.25 to 5 uM preincubated for 1 hrs followed by adriamycin addition and measured after 72 hrs by MTS assay; assay type: functional, cell-based; conditions: dose 1.25-5 µM, time 73.0 hrs
K562/A02 [5] = assay: Reversal of ABCB1 mediated adriamycin resistance in human K562/A02 overexpressing ABCB1 assessed as decrease in survival rate at 5 uM preincubated for 1 hrs followed by adriamycin addition and measured after 72 hrs by MTS assay; assay type: functional
[6] = Cytotoxicity against human HEK293 cells assessed as reduction in cell viability incubated for 72 hrs by SRB assay; assay type: toxicity, cell-based
[7] = Cytotoxicity against human HEK293 cells expressing ABCG2 assessed as reduction in cell viability incubated for 72 hrs by SRB assay; assay type: toxicity, cell-based
HEK293 [8] = assay: Reversal of ABCG2 mediated mitoxantrone resistance in human HEK293 assessed as decrease in survival rate at 1.25 to 5 uM preincubated for 1 hrs followed by mitoxantrone addition and measured after 72 hrs by SRB assay; assay type: functional, cell-based; conditions: dose 1.25-5 µM, time 73.0 hrs
HEK293 [9] = assay: Reversal of ABCG2 mediated mitoxantrone resistance in human HEK293 overexpressing ABCG2 assessed as decrease in survival rate at 1.25 to 5 uM preincubated for 1 hrs followed by mitoxantrone addition and measured after 72 hrs by SRB assay; assay type: functional, cell-based; conditions: dose 1.25-5 µM, time 73.0 hrs
K562/A02 [10] = assay: Reversal of ABCB1 mediated multidrug resistance in human K562/A02 cells overexpressing ABCB1 assessed as decrease in survival rate at 1.25 to 5 uM preincubated for 1 hrs followed by paclitaxel addition and measured after 72 hrs by MTS assay; assay type: functional, cell-based; conditions: dose 1.25-5 µM, time 73.0 hrs
K562/A02 [11] = assay: Reversal of ABCB1 mediated multidrug resistance in human K562/A02 cells overexpressing ABCB1 assessed as decrease in survival rate at 1.25 to 5 uM preincubated for 1 hrs followed by vincristine addition and measured after 72 hrs by MTS assay; assay type: functional, cell-based; conditions: dose 1.25-5 µM, time 73.0 hrs
K562/A02 [12] = assay: Reversal of ABCB1 mediated multidrug resistance in human K562/A02 cells overexpressing ABCB1 assessed as decrease in survival rate at 1.25 uM preincubated for 1 hrs followed by vincristine addition and measured after 72 hrs by MTS assay; assay type: functional; conditions: time 73 hrs
HEK293 [13] = assay: Reversal of ABCG2 mediated multidrug resistance in human HEK293 overexpressing ABCG2 assessed as decrease in survival rate at 1.25 to 5 uM preincubated for 1 hrs followed by adriamycin addition and measured after 72 hrs by SRB assay; assay type: functional, cell-based; conditions: dose 1.25-5 µM, time 73.0 hrs
HEK293 [14] = assay: Reversal of ABCG2 mediated multidrug resistance in human HEK293 overexpressing ABCG2 assessed as decrease in survival rate at 1.25 to 5 uM preincubated for 1 hrs followed by topotecan addition and measured after 72 hrs by SRB assay; assay type: functional, cell-based; conditions: dose 1.25-5 µM, time 73.0 hrs
K562/A02 [15] = assay: Reversal of ABCB1 mediated multidrug resistance in human K562/A02 cells overexpressing ABCB1 assessed as change in ABCB1 protein expression level at 2.5 uM incubated for 72 hrs by Western blot analysis; assay type: functional, cell-based
HEK293 [16] = assay: Reversal of ABCG2 mediated multidrug resistance in human HEK293 cells overexpressing ABCG2 assessed as change in ABCG2 protein expression level at 2.5 uM incubated for 48 hrs by Western blot analysis; assay type: functional, cell-based
K562/A02 [17] = assay: Reversal of ABCB1 mediated multidrug resistance in human K562/A02 cells overexpressing ABCB1 assessed as change in abcb1 mRNA expression level at 2.5 uM incubated for 72 hrs by real time RT-PCR analysis; assay type: functional, cell-based
HEK293 [18] = assay: Reversal of ABCG2 mediated multidrug resistance in human HEK293 cells overexpressing ABCG2 assessed as change in abcg2 mRNA expression level at 2.5 uM incubated for 48 hrs by real time RT-PCR analysis; assay type: functional, cell-based
[19] = molecular target: ATP-dependent translocase ABCB1 (Homo sapiens, UniProt P08183); assay: Inhibition of ABCB1 (unknown origin) ATPase activity assessed as decrease in luminescence by firefly luciferase reporter assay
[20] = molecular target: T1, Broad substrate specificity ATP-binding cassette transporter ABCG2 (Homo sapiens, UniProt Q9UNQ0); assay: Inhibition of ABCG2 (unknown origin) ATPase activity assessed as decrease in luminescence by firefly luciferase reporter assay
T1 sequence (Q9UNQ0 whole entry): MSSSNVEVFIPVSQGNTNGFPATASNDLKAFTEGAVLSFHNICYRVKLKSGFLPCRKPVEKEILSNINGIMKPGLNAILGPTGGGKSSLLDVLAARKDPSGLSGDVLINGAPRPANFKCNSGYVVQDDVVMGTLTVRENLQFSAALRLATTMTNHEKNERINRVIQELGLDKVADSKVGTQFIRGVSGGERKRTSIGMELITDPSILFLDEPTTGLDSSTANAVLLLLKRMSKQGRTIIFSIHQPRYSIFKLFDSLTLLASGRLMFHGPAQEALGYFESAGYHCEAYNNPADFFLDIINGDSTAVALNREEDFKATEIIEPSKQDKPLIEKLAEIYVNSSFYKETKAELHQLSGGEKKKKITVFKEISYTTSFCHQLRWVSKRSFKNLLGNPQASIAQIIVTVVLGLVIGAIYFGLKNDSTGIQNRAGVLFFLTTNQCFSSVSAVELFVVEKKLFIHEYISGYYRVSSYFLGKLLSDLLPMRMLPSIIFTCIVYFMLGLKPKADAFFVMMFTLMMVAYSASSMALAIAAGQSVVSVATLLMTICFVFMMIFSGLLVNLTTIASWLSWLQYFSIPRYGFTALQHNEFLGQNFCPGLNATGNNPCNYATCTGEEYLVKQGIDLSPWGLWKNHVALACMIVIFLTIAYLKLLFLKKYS

[21] = Stability in rat plasma assessed as parent compound remaining at 80 ug/ml and measured after 300 mins by LC-MS/MS analysis; assay type: ADME, cell-free; conditions: 5 h, at 80 µg/mL
[22] = Metabolic stability in rat liver microsomes assessed as half life at 80 ug/ml preincubated for 5 mins followed by NADPH addition and measured upto 120 mins by LC-MS/MS analysis; assay type: ADME, Microsome; conditions: dose 80 µg/ml, time < 125 min
[23] = Metabolic stability in rat liver microsomes assessed as intrinsic clearance at 80 ug/ml preincubated for 5 mins followed by NADPH addition and measured upto 120 mins by LC-MS/MS analysis; assay type: ADME, Microsome; conditions: dose 80 µg/ml, time < 125 min, read-out: CLH
[24] = AUCt in Sprague-Dawley rat at 5 mg/kg, iv by LC-MS/MS analysis; assay type: ADME, organism-based; design: dose 5 mg/kg, route iv; conditions: in vivo
[25] = AUC (0 to infinity) in Sprague-Dawley rat at 5 mg/kg, iv by LC-MS/MS analysis; assay type: ADME, organism-based; design: dose 5 mg/kg, route iv; conditions: in vivo
[26] = Volume of distribution at steady state in Sprague-Dawley rat at 5 mg/kg, iv by LC-MS/MS analysis; assay type: ADME, organism-based; conditions: in vivo, read-out: Vdss
[27] = Clearance in Sprague-Dawley rat at 5 mg/kg, iv by LC-MS/MS analysis; assay type: ADME, organism-based; conditions: in vivo
[28] = Half life in Sprague-Dawley rat at 5 mg/kg, iv by LC-MS/MS analysis; assay type: ADME, organism-based; conditions: in vivo
[29] = Toxicity in iv dosed BALB/c mouse xenografted with human K562/A02 cells overexpressing ABCB1 assessed as lethality; assay type: organism-based; conditions: in vivo
K562 [30] = assay: Antitumor activity against human K562 cells xenografted in BALB/c mouse assessed as tumor growth inhibition at 40 mg/kg, iv QD for 14 days in presence of adriamycin; assay type: functional, organism-based; conditions: time 14.0 day
K562/A02 [31] = assay: Antitumor activity against human K562/A02 cells overexpressing ABCB1 xenografted in BALB/c mouse assessed as tumor growth inhibition at 40 mg/kg, iv QD for 14 days in presence of adriamycin; assay type: functional, organism-based; conditions: time 14.0 day
[32] = Toxicity in BALB/c mouse xenografted with human K562 cells assessed as body weight loss at 10 to 40 mg/kg, iv QD for 14 days in presence of adriamycin; assay type: organism-based; conditions: in vivo, 336 h, dose 10-40 mg/kg, time 14 day
[33] = Toxicity in BALB/c mouse xenografted with human K562 cells assessed as body weight loss at 20 mg/kg, iv QD for 14 days; assay type: organism-based; conditions: in vivo, 336 h, time 14 day
[34] = Toxicity in BALB/c mouse xenografted with human K562/A02 cells overexpressing ABCB1 assessed as body weight loss at 10 to 40 mg/kg, iv QD for 14 days in presence of adriamycin; assay type: organism-based; conditions: in vivo, 336 h, dose 10-40 mg/kg, time 14 day
[35] = Toxicity in BALB/c mouse xenografted with human K562/A02 cells overexpressing ABCB1 assessed as body weight loss at 20 mg/kg, iv QD for 14 days; assay type: organism-based; conditions: in vivo, 336 h, time 14 day

ATP-dependent translocase ABCB1, sequence (P08183 whole entry): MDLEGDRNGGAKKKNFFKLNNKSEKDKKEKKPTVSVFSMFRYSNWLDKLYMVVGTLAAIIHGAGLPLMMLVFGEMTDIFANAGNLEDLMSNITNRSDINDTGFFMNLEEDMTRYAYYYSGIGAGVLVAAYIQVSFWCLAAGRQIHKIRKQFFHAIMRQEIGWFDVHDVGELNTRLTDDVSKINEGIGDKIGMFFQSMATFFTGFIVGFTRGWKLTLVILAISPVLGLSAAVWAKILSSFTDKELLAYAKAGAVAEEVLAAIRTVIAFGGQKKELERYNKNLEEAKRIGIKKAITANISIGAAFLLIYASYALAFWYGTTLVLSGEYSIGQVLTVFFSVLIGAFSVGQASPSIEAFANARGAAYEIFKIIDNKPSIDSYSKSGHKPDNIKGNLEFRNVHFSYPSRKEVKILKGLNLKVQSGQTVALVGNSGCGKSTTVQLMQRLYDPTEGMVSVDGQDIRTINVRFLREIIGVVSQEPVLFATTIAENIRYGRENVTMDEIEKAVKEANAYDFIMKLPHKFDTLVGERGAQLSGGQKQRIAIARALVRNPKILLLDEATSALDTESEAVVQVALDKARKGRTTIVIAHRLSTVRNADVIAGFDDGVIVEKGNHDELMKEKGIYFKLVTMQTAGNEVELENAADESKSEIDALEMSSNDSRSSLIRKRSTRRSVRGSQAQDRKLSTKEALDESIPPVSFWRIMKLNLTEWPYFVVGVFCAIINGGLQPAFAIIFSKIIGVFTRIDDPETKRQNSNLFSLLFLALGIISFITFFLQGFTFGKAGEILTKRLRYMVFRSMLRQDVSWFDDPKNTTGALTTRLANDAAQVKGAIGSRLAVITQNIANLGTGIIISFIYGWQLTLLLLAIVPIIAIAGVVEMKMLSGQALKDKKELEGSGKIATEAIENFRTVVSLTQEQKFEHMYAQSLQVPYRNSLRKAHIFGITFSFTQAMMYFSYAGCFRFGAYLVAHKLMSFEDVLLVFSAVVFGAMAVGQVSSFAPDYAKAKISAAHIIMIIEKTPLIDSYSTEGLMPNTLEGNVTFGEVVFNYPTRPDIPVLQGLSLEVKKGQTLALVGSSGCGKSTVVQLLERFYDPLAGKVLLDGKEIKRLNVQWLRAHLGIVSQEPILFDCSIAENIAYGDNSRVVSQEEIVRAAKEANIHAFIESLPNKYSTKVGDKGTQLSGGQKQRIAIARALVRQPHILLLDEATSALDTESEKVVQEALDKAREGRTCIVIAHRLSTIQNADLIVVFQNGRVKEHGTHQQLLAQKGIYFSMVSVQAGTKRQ

O=C(CN1CCN(c2ccc(OC(F)(F)F)cc2)CC1)Nc1ccc(-c2nc3ccccn3c2CN2CCN(c3ccccc3)CC2)cc1
IC50 at 72 h [1]: > 100 µM | IC50 at 72 h [2]: > 100 µM | Activity (K562 [3]): inactive | Activity (K562/A02 [4]): Active | Activity (K562/A02 [5]): <30% | IC50 at 72 h [6]: 53.4 µM | IC50 at 72 h [7]: 67.7 µM | Activity (HEK293 [8]): inactive | Activity (HEK293 [9]): Active | Activity (K562/A02 [10]): Active | Activity (K562/A02 [11]): Active | Activity (K562/A02 [12]): 56% | Activity (HEK293 [13]): Active | Activity (HEK293 [14]): Active | Activity (K562/A02 [15]): inactive | Activity (HEK293 [16]): inactive | Activity (K562/A02 [17]): inactive | Activity (HEK293 [18]): inactive | inhibition (INH) [19]: Active | inhibition (INH) [20]: Active | Stability [21]: Stable | half-life at 80 ug/ml [22]: 1.02 h | microsomal CLint at 80 ug/ml [23]: 2.27 µL/min/mg | AUC(0-t) [24]: 0.651 µg·h/mL | AUC(0-inf) [25]: 0.676 µg·h/mL | Vd [26]: 9.41 L/kg | clearance [27]: 7.81 L/h/kg | half-life [28]: 2.25 h | LD50 [29]: > 200 mg/kg/day | Activity (K562 [30]): inactive | Activity (K562/A02 [31]): Active | Activity [32]: Non-Toxic | Activity [33]: Non-Toxic | Activity [34]: Non-Toxic | Activity [35]: Non-Toxic
